Laboratory results: US11000033B2, “Ketone or oxime compound, and herbicide” (NISSAN CHEMICAL CORPORATION, priority 2014, dated 2021)

Tests used:
Assay type in all cases: in vivo
[1] = system: Chenopodium album; test: Test Example 4: herbicidal effect by soil treatment (symbol O); details: application herbicide amount 320 g/ha
Method in brief: (§1)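 Seeds were sown in sterilized diluvial soil, covered with about 1.5 cm of soil, and the soil surface was sprayed with a water-diluted emulsion of the compound at a predetermined rate. Plants grew in a greenhouse at 25° C. to 30° C.; effects were scored visually 3 weeks after application.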

[2] = system: Abutilon theophrasti; test: Test Example 4: herbicidal effect by soil treatment (symbol M); details: for M: Abutilon theophrasti, herbicidal effect grade: 320 g/ha
Method in brief: as §1

[3] = system: Echinochloa crus-galli var. crus-galli; test: Test Example 4: herbicidal effect by soil treatment (symbol H); details: for H: Echinochloa crus-galli var. crus-galli, herbicidal effect grade: 320 g/ha
Method in brief: as §1

[4] = system: Amaranthus retroflexus; test: Test Example 5: herbicidal effect by foliage application, plastic box (symbol N); details: 320 g/ha, 3 weeks after application
Method in brief: (§2)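 Sowing in sterilized diluvial soil, 14 days' greenhouse growth at 25° C. to 30° C., then uniform small-sprayer foliar application of aqueous emulsion dilution; plants scored three weeks afterwards.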

[5] = system: rice plant; test: Test Example 5: effect on crop by foliage application, plastic box (symbol b); details: 320 g/ha, 3 weeks after application
Method in brief: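 Box culture: sterile diluvial soil, seeds spot-sown, ~1.5 cm cover, raised under glass at 25–30° C.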

[6] = system: Lolium multiflorum Lam.; test: Test Example 5: herbicidal effect by foliage application, plastic box (symbol K); details: 320 g/ha, 3 weeks after application
Method in brief: as §2

[7] = system: Galium spurium; test: Test Example 4: herbicidal effect by soil treatment (symbol Q); details: for Q: Galium spurium, herbicidal effect grade: 320 g/ha
Method in brief: as §1

[8] = system: Apera spica-venti; test: Test Example 5: herbicidal effect by foliage application, plastic box (symbol L); details: 320 g/ha, 3 weeks after application
Method in brief: as §2

[9] = system: Scirpus juncoides; test: Test Example 1: herbicidal activity, application before weed generation in submerged conditions (symbol B); details: application herbicide amount 320 g/ha
Method in brief: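 Scores run 0 to 5 by herbicidal ratio, with 5 meaning 90% or more and 0 meaning 5% or lower, read 3 weeks after treatment. Compound was applied as a diluted emulsion to the water surface of submerged alluvial-soil pots on the day weed seeds were sown.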

[10] = application herbicide amount 320 g/ha

SMILES | Herbicidal effect grade, O: Chenopodium album [1] | Herbicidal effect grade, M: Abutilon theophrasti [2, 10] | Herbicidal effect grade, H: Echinochloa crus-galli var. crus-galli [3, 10] | N: Amaranthus retroflexus, herbicidal effect grade [4] | b: directly sowed rice plant, effect on crop grade [5] | K: Lolium multiflorum Lam., herbicidal effect grade [6] | Herbicidal effect grade, Q: Galium spurium [7, 10] | L: Apera spica-venti, herbicidal effect grade [8] | M (Abutilon theophrasti) herbicidal effect grade [2, 10] | H (Echinochloa crus-galli var. crus-galli) herbicidal effect grade [3, 10] | Herbicidal effect grade, B: Scirpus juncoides [9] | Q (Galium spurium) herbicidal effect grade [7, 10] | M: Abutilon theophrasti, herbicidal effect grade [2] | H: Echinochloa crus-galli var. crus-galli, herbicidal effect grade [3] | N: Amaranthus retroflexus, herbicidal effect (criteria 0-5) [4] | b: directly sowed rice plant, effect on crop (criteria 0-5) [5] | K: Lolium multiflorum Lam., herbicidal effect (criteria 0-5) [6] | Q: Galium spurium, herbicidal effect grade [7] | L: Apera spica-venti, herbicidal effect (criteria 0-5) [8]
CC(CC1CC(O)=C(c2c(C)cc(Br)cc2C)C1=O)=NOCC(=O)N(C)C (mixture of isomers) [9-029] | 0 (Herbicidal ratio of 5% or lower (almost no effect)) | 0 (Herbicidal ratio of 5% or lower (almost no effect)) | 3 (Herbicidal ratio of 40% or higher and lower than 70%) | 0 (Herbicidal ratio of 5% or lower (almost no effect)) | 3 (Herbicidal ratio of 40% or higher and lower than 70%) | 5 (Herbicidal ratio of 90% or more (almost completely withered)) | 0 (Herbicidal ratio of 5% or lower (almost no effect)) | 4 (Herbicidal ratio of 70% or higher and lower than 90%) | – | – | – | – | – | – | – | – | – | – | –
CON=C(C)C(c1ccc(F)cc1)C1CC(O)=C(c2c(C)cc(C)cc2C)C1=O (stereo not shown) [1-049] | – | – | – | 0 (Herbicidal ratio of 5% or lower (almost no effect)) | 0 (Herbicidal ratio of 5% or lower (almost no effect)) | 0 (Herbicidal ratio of 5% or lower (almost no effect)) | – | 0 (Herbicidal ratio of 5% or lower (almost no effect)) | 0 (Herbicidal ratio of 5% or lower (almost no effect)) | 0 (Herbicidal ratio of 5% or lower (almost no effect)) | 0 (Herbicidal ratio of 5% or lower (almost no effect)) | 0 (Herbicidal ratio of 5% or lower (almost no effect)) | – | – | – | – | – | – | –
CON=C(C)CC1CC(OC(=O)COc2ccccc2OC)=C(c2c(C)cc(C)cc2C)C1=O (stereo not shown) [1-067] | – | – | – | 4 (Herbicidal ratio of 70% or higher and lower than 90%) | 5 (Herbicidal ratio of 90% or more (almost completely withered)) | 3 (Herbicidal ratio of 40% or higher and lower than 70%) | – | 5 (Herbicidal ratio of 90% or more (almost completely withered)) | 5 (Herbicidal ratio of 90% or more (almost completely withered)) | 5 (Herbicidal ratio of 90% or more (almost completely withered)) | 5 (Herbicidal ratio of 90% or more (almost completely withered)) | 0 (Herbicidal ratio of 5% or lower (almost no effect)) | – | – | – | – | – | – | –
CON=C(C)CC1CC(OC(=O)COc2cccc(OC)c2)=C(c2c(C)cc(C)cc2C)C1=O (stereo not shown) [1-068] | – | – | – | 4 (Herbicidal ratio of 70% or higher and lower than 90%) | 5 (Herbicidal ratio of 90% or more (almost completely withered)) | 5 (Herbicidal ratio of 90% or more (almost completely withered)) | – | 5 (Herbicidal ratio of 90% or more (almost completely withered)) | 4 (Herbicidal ratio of 70% or higher and lower than 90%) | 5 (Herbicidal ratio of 90% or more (almost completely withered)) | 4 (Herbicidal ratio of 70% or higher and lower than 90%) | 0 (Herbicidal ratio of 5% or lower (almost no effect)) | – | – | – | – | – | – | –
CON=C(C)CC1CC(OC(=O)COc2ccccc2[N+](=O)[O-])=C(c2c(C)cc(C)cc2C)C1=O (stereo not shown) [1-071] | – | – | – | 0 (Herbicidal ratio of 5% or lower (almost no effect)) | 5 (Herbicidal ratio of 90% or more (almost completely withered)) | 3 (Herbicidal ratio of 40% or higher and lower than 70%) | – | 5 (Herbicidal ratio of 90% or more (almost completely withered)) | 4 (Herbicidal ratio of 70% or higher and lower than 90%) | 5 (Herbicidal ratio of 90% or more (almost completely withered)) | 4 (Herbicidal ratio of 70% or higher and lower than 90%) | 0 (Herbicidal ratio of 5% or lower (almost no effect)) | – | – | – | – | – | – | –
CON=C(C)CC1CC(OC(=O)COc2ccc(C)cc2)=C(c2c(C)cc(C)cc2C)C1=O (stereo not shown) [1-072] | – | – | – | 5 (Herbicidal ratio of 90% or more (almost completely withered)) | 5 (Herbicidal ratio of 90% or more (almost completely withered)) | 5 (Herbicidal ratio of 90% or more (almost completely withered)) | – | 5 (Herbicidal ratio of 90% or more (almost completely withered)) | 4 (Herbicidal ratio of 70% or higher and lower than 90%) | 5 (Herbicidal ratio of 90% or more (almost completely withered)) | 4 (Herbicidal ratio of 70% or higher and lower than 90%) | 0 (Herbicidal ratio of 5% or lower (almost no effect)) | – | – | – | – | – | – | –
CON=C(C)CC1CC(OC(=O)C(C)Oc2ccc(Oc3cnc4cc(Cl)ccc4n3)cc2)=C(c2c(C)cc(C)cc2C)C1=O (stereo not shown) [1-087] | – | – | – | – | – | – | – | – | – | – | 5 (Herbicidal ratio of 90% or more (almost completely withered)) | – | 5 (Herbicidal ratio of 90% or more (almost completely withered)) | 5 (Herbicidal ratio of 90% or more (almost completely withered)) | 4 (Herbicidal ratio of 70% or higher and lower than 90%) | 5 (Herbicidal ratio of 90% or more (almost completely withered)) | 5 (Herbicidal ratio of 90% or more (almost completely withered)) | 0 (Herbicidal ratio of 5% or lower (almost no effect)) | 5 (Herbicidal ratio of 90% or more (almost completely withered))
CON=C(C)CC1CC(OC(=O)C=Cc2ccco2)=C(c2c(C)cc(C)cc2C)C1=O (stereo not shown) [1-091] | – | – | – | – | – | – | – | – | – | – | 5 (Herbicidal ratio of 90% or more (almost completely withered)) | – | 1 (Herbicidal ratio of 5% or higher and lower than 20%) | 5 (Herbicidal ratio of 90% or more (almost completely withered)) | 3 (Herbicidal ratio of 40% or higher and lower than 70%) | 5 (Herbicidal ratio of 90% or more (almost completely withered)) | 5 (Herbicidal ratio of 90% or more (almost completely withered)) | 0 (Herbicidal ratio of 5% or lower (almost no effect)) | 5 (Herbicidal ratio of 90% or more (almost completely withered))
